Experimental data as given in the NIST ThermoML archive (doi:10.1021/acs.jced.8b00349).

Legend:
[1] = mn = molality of the nth substance listed, in mol/kg; conditions: 101 kPa, Liquid; for viscosity: Falling or rolling sphere viscometry; for speed of sound: Frequency=3 MHz, Single path-length method; for mass density: Vibrating tube method
[2] = 101 kPa, Liquid, Falling or rolling sphere viscometry

O [water] + C[n+]1ccn(CCCCn2cc[n+](C)c2)c1.[Br-].[Br-]
[1], m2 = 0
Conditions | speed of sound [m/s] | viscosity [mPa·s]
293.15 K | – | 1.005
298.15 K | – | 0.894
303.15 K | – | 0.801
308.15 K | – | 0.723
313.15 K | 1529.2 | 0.656

NCC(=O)O [2-aminoacetic acid] + O
[1], m1 = 0.06
Conditions | mass density [kg/m3] | speed of sound [m/s] | viscosity [mPa·s]
293.15 K | 1000.19 | 1485.8 | 1.012
298.15 K | 999.024 | 1499.6 | 0.908
303.15 K | 997.613 | 1511.8 | 0.811
308.15 K | 995.985 | 1522.4 | 0.733
313.15 K | 994.125 | 1531.4 | 0.666

O [water] + C[n+]1ccn(CCCCCn2cc[n+](C)c2)c1.[Br-].[Br-]
[1], m2 = 0
Conditions | speed of sound [m/s] | viscosity [mPa·s]
293.15 K | – | 1.005
298.15 K | – | 0.894
303.15 K | – | 0.801
308.15 K | – | 0.723
313.15 K | 1529.2 | 0.656

O [water] + C[n+]1ccn(CCCn2cc[n+](C)c2)c1.[Br-].[Br-]
[1], m2 = 0
Conditions | speed of sound [m/s] | viscosity [mPa·s]
293.15 K | – | 1.005
298.15 K | – | 0.894
303.15 K | – | 0.801
308.15 K | – | 0.723
313.15 K | 1529.2 | 0.656

O [water]
[2]
Conditions | viscosity [mPa·s]
293.15 K | 1.005
298.15 K | 0.894
303.15 K | 0.801
308.15 K | 0.723
313.15 K | 0.656
